According to patent publication US6548494B1, “Tricyclic inhibitors of poly(ADP-ribose) polymerases” (Agouron Pharmaceuticals, Inc., priority 1999, dated 2003):
Where “and” joins values, the source holds several entries; their conditions need not be identical. Equal values may be shown once. Read-outs that look alike come from different tables or passages of the source.

Legend:
purified PARP protein = purified PARP protein (Homo sapiens, UniProt P09874); experiment: PARP enzyme inhibition assay; type: biochemical
[1] = 20 nM purified PARP (5 nM for tight-binding inhibitors), 500 μM NAD+, 25° C., several values in one cell = repeat determinations, read-out: Inhibition Constant Ki

Sequence of purified PARP protein (P09874 whole entry): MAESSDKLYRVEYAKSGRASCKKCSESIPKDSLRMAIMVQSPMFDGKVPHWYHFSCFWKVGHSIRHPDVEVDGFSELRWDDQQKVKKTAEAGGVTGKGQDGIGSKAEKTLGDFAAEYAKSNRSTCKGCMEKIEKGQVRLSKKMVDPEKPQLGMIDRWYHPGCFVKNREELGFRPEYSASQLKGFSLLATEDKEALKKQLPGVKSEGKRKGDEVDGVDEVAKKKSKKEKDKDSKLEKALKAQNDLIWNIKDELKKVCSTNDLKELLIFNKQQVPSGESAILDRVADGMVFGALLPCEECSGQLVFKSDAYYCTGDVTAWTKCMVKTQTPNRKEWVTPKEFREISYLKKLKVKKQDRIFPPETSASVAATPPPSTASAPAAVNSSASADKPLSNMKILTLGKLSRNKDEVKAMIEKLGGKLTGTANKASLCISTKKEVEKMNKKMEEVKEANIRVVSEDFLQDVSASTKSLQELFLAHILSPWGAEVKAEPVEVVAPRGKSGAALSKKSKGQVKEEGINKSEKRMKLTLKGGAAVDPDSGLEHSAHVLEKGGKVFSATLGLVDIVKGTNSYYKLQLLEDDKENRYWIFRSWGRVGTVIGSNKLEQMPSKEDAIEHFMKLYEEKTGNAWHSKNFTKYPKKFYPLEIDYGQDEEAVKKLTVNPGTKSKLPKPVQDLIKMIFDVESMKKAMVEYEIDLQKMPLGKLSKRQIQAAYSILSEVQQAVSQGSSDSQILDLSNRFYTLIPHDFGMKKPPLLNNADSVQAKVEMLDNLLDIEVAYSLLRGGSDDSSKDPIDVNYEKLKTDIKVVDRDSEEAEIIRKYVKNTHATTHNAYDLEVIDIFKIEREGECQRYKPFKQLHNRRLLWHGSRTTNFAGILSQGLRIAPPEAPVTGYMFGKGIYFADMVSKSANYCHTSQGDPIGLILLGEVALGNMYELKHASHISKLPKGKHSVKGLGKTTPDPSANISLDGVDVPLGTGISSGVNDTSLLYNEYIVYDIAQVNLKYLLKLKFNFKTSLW

Structure (SMILES) | Ki (purified PARP protein; [1]) | melting point | Ki (purified PARP protein; Inhibition Constant Ki (nM)) [nM] | Ki (purified PARP protein; Inhibition Constant Ki (nM), 20 nM purified PARP (5 nM for tight-binding inhibitors), 500 μM NAD+, 25° C., several values in one cell = repeat determinations) [nM]
N#Cc1cccc(-c2nc3cccc4c3n2CCNC4=O)c1 [Example 73, 3-(6-Oxo-6,7,8,9-tetrahydro-2,7,9a-triaza-benzo[cd]azulen-1-yl)-benzonitrile] | 10 nM | 283 to 284 °C (dec.) | – | –
O=C1NCCn2cc(/C(=N/O)c3ccccc3)c3cccc1c32 [Example 168, 7-(1-Hydroxyimino-1-phenyl-methyl)-3,4-dihydro-2H-[1,4]diazepino[6,7,1-hi]indol-1-one] | – | 263 to 265 °C | 38 | –
CC(O)c1cn2c3c(cccc13)C(=O)NCC2 (stereo not drawn) [Example 163, 7-(1-Hydroxy-ethyl)-3,4-dihydro-2H-[1,4]diazepino[6,7,1-hi]indol-1-one] | 692 nM | 295 to 297 °C | – | –
C[C@H]1Cn2c(-c3ccc(Cl)cc3)nc3cccc(c32)C(=O)N1 [Example 235, (S)-1-(4-Chloro-phenyl)-8-methyl-8,9-dihydro-7H-2,7,9a-triaza-benzo[cd]azulen-6-one] | 5.4 nM | 244 to 246 °C | – | –
CC(C)(C)c1nc2cccc3c2n1CCNC3=O [Example 22, 1-tert-Butyl-8,9-dihydro-7H-2,7,9a-triaza-benzo[cd]azulen-6-one] | 13 nM and 14 nM and 15 nM | 246 to 248 °C | – | –
O=C1NCCn2c(-c3cccc(Oc4cccnc4)c3)nc3cccc1c32 [Example 16, 1-[3-(Pyridin-3-yloxy)-phenyl]-8,9-dihydro-7H-2,7,9a-triaza-benzo[cd]azulen-6-one] | 7.2 nM | 223 to 225 °C | – | –
O=C(c1ccccc1)c1cccc(-c2nc3cccc4c3n2CCNC4=O)c1 [Example 66, 1-(3-Benzoylphenyl)-8,9-dihydro-7H-2,7,9a-triaza-benzo[cd]azulen-6-one] | 8.9 nM | 237 to 238 °C (dec.) | – | –
CNCc1cccc(-c2cc3cccc4c3n2CCNC4=O)c1 [Example 87, 6-(3-Methylaminomethyl-phenyl)-3,4-dihydro-2H-[1,4]diazepino[6,7,1-hi]indol-1-one] | 6.7 nM and 7 nM | 128 to 130 °C | – | –
CC(=O)c1c(-c2ccc(F)cc2)n2c3c(cccc13)C(=O)NCC2 [Example 93, 7-Acetyl-6-(4-fluoro-phenyl)-3,4-dihydro-2H-[1,4]diazepino[6,7,1-hi]indol-1-one] | – | 275 to 276 °C | – | 306
O=C1NCCn2c(-c3ccc(=O)n(Cc4ccccc4)c3)nc3cccc1c32 [Example 114, 1-(1-Benzyl-6-oxo-1,6-dihydro-pyridin-3-yl)-8,9-dihydro-7H-2,7,9a-triaza-benzo[cd]azulen-6-one] | 9.9 nM | 265 to 269 °C (dec.) | – | –
C#CCNCc1ccc(-c2nc3cccc4c3n2CCNC4=O)cc1 [Example 104, 1-(4-Prop-2-ynylaminomethyl-phenyl)-8,9-dihydro-7H-2,7,9a-triaza-benzo[cd]azulen-6-one] | 4.5 nM | 126 °C (dec.) | – | –
O=C1NCCn2c(-c3ccc(Sc4ccc(Cl)cc4)nc3)nc3cccc1c32 [Example 108, 1-[6-(4-Chloro-phenylsulfanyl)-pyridin-3-yl]-8,9-dihydro-7H-2,7,9a-triaza-benzo[cd]azulen-6-one] | 6 nM | 280 to 284 °C (dec.) | – | –
O=C1NCCn2c(-c3ccc[nH]3)nc3cccc1c32 [Example 95, 1-(1H-Pyrrol-2-yl)-8,9-dihydro-7H-2,7,9a-triaza-benzo[cd]azulen-6-one] | 6.2 nM | 327 to 332 °C (dec.) | – | –
Cn1nnc(-c2ccc(-c3nc4cccc5c4n3CCNC5=O)cc2)n1 [Example 133, 1-[4-(2-Methyl-2H-tetrazol-5-yl)-phenyl]-8,9-dihydro-7H-2,7,9a-triaza-benzo[cd]azulen-6-one] | 6.9 nM | 280 °C (dec.) | – | –
O=C1NCCn2c(-c3ccc(-c4ccncc4)cc3)nc3cccc1c32 [Example 135, 1-(4-Pyridin-4-yl-phenyl)-8,9-dihydro-7H-2,7,9a-triaza-benzo[cd]azulen-6-one] | 3.8 nM | 370 to 372 °C (dec.) | – | –
